# Results: patent publication US11654196B2, “Dosing regimens for echinocandin class compounds” (priority 2012, dated 2023)
# Where two headings read alike, the source gives them in different places. *1 amine or outer side, *2 acyl side, *3 side chain or, on linkers, in order; H or OH if unused. Where a SMILES comes first, the peptide text is derived from it. Bridges are numbered along the chain shown (N, C = ends). [ ]: non-standard residue; d: D form. The star is where a group is joined. pTerphenylCO(4''-OnC5H11) = CCCCCOc1ccc(-c2ccc(-c3ccc(C(=O)*)cc3)cc2)cc1; Orn(4R-OH,5R-OH) = O=C([C@H](C[C@@H](O)[C@@H](O)N[*:3])N[*:1])[*:2]; hTyr(3S-OH,4S-OH) = N[C@H](C(=O)O)[C@H](O)[C@@H](O)c1ccc(O)cc1; Pro(3S-OH,4S-Me) = C[C@H]1CN[C@H](C(=O)O)[C@H]1O; Hyp = O=C(O)[C@@H]1C[C@@H](O)CN1
# Experiments:
# [1] = Circulating half-life in rat; assay type: in vivo; conditions: in vivo, assays conducted by applicant, read-out: Half-life (converted)
# [2] = Circulating half-life in dog; assay type: in vivo; conditions: beagle, in vivo, assays conducted by applicant, read-out: Half-life (converted)
# [3] = Solubility in aqueous media of varying pH; assay type: physicochemical; conditions: ambient temperature, compound 22 as acetate salt, salt free equivalent, read-out: Solubility
# [4] = Circulating half-life in monkey; assay type: in vivo; conditions: in vivo, assays conducted by applicant, read-out: Half-life (converted)
# [5] = Circulating half-life in chimpanzee; assay type: in vivo; conditions: in vivo, iv, 1 mg/kg, assays conducted by applicant, read-out: Half-life (converted)
# Stability in rat plasma = assay type: in vitro ADME; conditions: rat plasma, 37° C.
# Protocol: (§1) Stock solutions of compound 22 and anidulafungin were prepared in DMSO at a concentration of 1 mg/mL. Plasma samples were prepared by mixing plasma with 10% volume of 1 M sodium phosphate, pH 7.4, to minimize pH fluctuation, and stock solution to produce plasma samples containing approximately 10,000 ng/mL compound 22 or anidulafungin. For the stability experiments in PBS buffer, plasma was replaced with phosphate buffered saline, pH 7.4. The DMSO concentration was 1% in the final incubation. Multiple individual aliquots (0.5 mL each) were prepared, capped, and incubated at 37° C. At each stability time point, the reaction was stopped by removing the sample from the incubator and adding 0.5 mL of acetonitrile containing internal standard. Samples were centrifuged for approximately 5 minutes at 10000 rpm to precipitate the proteins. Stability was measured in five different matrices (i.e. rat plasma, dog plasma, monkey plasma, human plasma, and PBS). An aliquot (100 μL) of supernatant of each sample was assayed by HPLC. The percentage of anidulafungin and compound 22 remaining at each time point was calculated by dividing the peak area ratio at each time point by the peak area ratio at time zero.
# [6] = Stability in phosphate buffered saline (PBS); assay type: physicochemical; conditions: PBS pH 7.4, 37° C.
# Protocol: as §1
# [7] = Stability in human plasma; assay type: in vitro ADME; conditions: human plasma, 37° C.
# Protocol: as §1
# [8] = Stability in monkey plasma; assay type: in vitro ADME; conditions: monkey plasma, 37° C.
# Protocol: as §1
# [9] = Pharmacokinetics (oral bioavailability) following oral administration in beagle dogs; assay type: in vivo; parameters: key to Improvement (ratio of % oral bioavailability to saline): NI = no improvement in oral bioavailability in comparison to saline; conditions: for % BA / Improvement (ratio of % oral bioavailability to saline): oral
# Protocol: Echinocandin class compounds were administered to beagle dogs weighing approximately 6-10 kg. Each animal received the appropriate prepared test article in a single oral capsule dose at a target dose level of about 7-10 mg/kg. Immediately after dosing, each animal was offered 20 mL-30 mL of water orally (Groups 1-4) or 30 mL of water orally to assist in swallowing the capsule.
# Animals were treated and blood samples were drawn and analyzed as provided in Example 1.
# The bioavailability of each oral dose formulation was estimated by comparison to intravenous plasma concentration data in dogs from Example 1. The results provided in Table 3 show the oral bioavailability for the echinocandin class compound in saline (formulation 11), and the improvement over saline with the use of a formulation of the invention.
# [10] = Pharmacokinetics in chimpanzee, IV dose; conditions: female, in vivo, chimpanzees, 1-mg/kg IV 60-minute infusion, mean of 2 chimps
# Protocol: Pharmacokinetic studies were performed in six adult female chimpanzees. Two chimpanzees received 1-mg/kg IV dose of compound 22 formulated in 5% dextrose (60-minute infusion). Two chimpanzees received 10-mg/kg oral dose of compound 22 formulated in 5% citric acid (oral bolus). Two chimpanzees received 1-mg/kg IV dose of anidulafungin formulated as package label (5% dextrose, 60-minute infusion). Plasma samples were collected from all chimps for 10 days to 22 days. PK curves are depicted in FIGS. 16A, 16B, and 18. All pharmacokinetic calculations were performed using WinNonlin version 4.1 (Pharsight Corp) by noncompartmental analysis.
# Stability in dog plasma = assay type: in vitro ADME; conditions: dog plasma, 37° C.
# Protocol: as §1
smiles,measurement,setting,value
"CCCCCOc1ccc(-c2ccc(-c3ccc(C(=O)N[C@H]4C[C@@H](O)[C@@H](O)NC(=O)[C@@H]5[C@@H](O)[C@@H](C)CN5C(=O)[C@H]([C@@H](C)O)NC(=O)[C@H]([C@H](O)[C@@H](O)c5ccc(O)cc5)NC(=O)[C@@H]5C[C@@H](O)CN5C(=O)[C@H]([C@@H](C)O)NC4=O)cc3)cc2)cc1 [Anidulafungin, anidulafungin, reference compound] ({pTerphenylCO(4''-OnC5H11)}-[Orn(4R-OH,5R-OH)]T[Hyp][hTyr(3S-OH,4S-OH)]T[Pro(3S-OH,4S-Me)]; lactam 1-C)",Half-life,[1],22 h
same,Half-life,[2],12 h
same,solubility,[3]; Sterile Water for injection,< 10 µg/mL
same,solubility,"[3]; aqueous buffer, Acetate buffer (0.01M, pH 4.5)",< 10 µg/mL
same,solubility,"[3]; aqueous buffer, Acetate buffer (0.01M, pH 5.5)",< 10 µg/mL
same,solubility,"[3]; aqueous buffer, Tris buffer (0.01M, pH 8.5)",< 10 µg/mL
same,solubility,"[3]; aqueous with cosolvent or surfactant or cyclodextrin, 90% Water:10% glycerol",< 10 µg/mL
same,Half-life,[4],8 h
same,Half-life,[5],30 h
same,% remaining,Stability in rat plasma; 0 h,100%
same,% remaining,Stability in rat plasma; 1 h,84.3%
same,% remaining,Stability in rat plasma; 2 h,76.5%
same,% remaining,Stability in rat plasma; 4 h,45.6%
same,% remaining,Stability in rat plasma; 8 h,23.2%
same,% remaining,Stability in rat plasma; 21 h,7.3%
same,% remaining,Stability in rat plasma; 44 h,7.4%
same,% remaining,[6]; 0 h,100%
same,% remaining,[6]; 1 h,100%
same,% remaining,[6]; 2 h,97.8%
same,% remaining,[6]; 4 h,87.4%
same,% remaining,[6]; 8 h,86.0%
same,% remaining,[6]; 21 h,68.9%
same,% remaining,[6]; 44 h,41.9%
same,% remaining,[7]; 0 h,100%
same,% remaining,[7]; 1 h,102%
same,% remaining,[7]; 2 h,98.0%
same,% remaining,[7]; 4 h,61.8%
same,% remaining,[7]; 8 h,72.0%
same,% remaining,[7]; 21 h,51.2%
same,% remaining,[7]; 44 h,7.3%
same,% remaining,[8]; 0 h,100%
same,% remaining,[8]; 1 h,106%
same,% remaining,[8]; 2 h,111%
same,% remaining,[8]; 4 h,68.1%
same,% remaining,[8]; 8 h,76.0%
same,% remaining,[8]; 21 h,22.4%
same,% remaining,[8]; 44 h,13.8%
same,% BA in saline,"[9]; oral about 7-10 mg/kg, formulation 11 (saline)",7.80%
same,% BA,[9]; formulation 1,(14.3%)
same,Improvement (ratio of % oral bioavailability to saline),[9]; formulation 1,1.8
same,Improvement (ratio of % oral bioavailability to saline),[9]; formulation 2,NI
same,% BA,[9]; formulation 3,(9.80%)
same,Improvement (ratio of % oral bioavailability to saline),[9]; formulation 3,1.3
same,Improvement (ratio of % oral bioavailability to saline),[9]; formulation 4,NI^4
same,% BA,[9]; formulation 5,(16.5%)
same,Improvement (ratio of % oral bioavailability to saline),[9]; formulation 5,2.1
same,Improvement (ratio of % oral bioavailability to saline),[9]; formulation 6,NI
same,clearance,[10]; read-out: Clearance (converted),0.417 mL/min/kg
same,Half-life,[10]; read-out: Plasma half-life (IV) (converted),30 h
same,Vd,[10]; read-out: Volume of distribution,1.1 L/kg
same,% remaining,Stability in dog plasma; 0 h,100%
same,% remaining,Stability in dog plasma; 1 h,100%
same,% remaining,Stability in dog plasma; 2 h,94.8%
same,% remaining,Stability in dog plasma; 4 h,77.1%
same,% remaining,Stability in dog plasma; 8 h,81.1%
same,% remaining,Stability in dog plasma; 21 h,47.2%
same,% remaining,Stability in dog plasma; 44 h,14.6%
